Results: patent US20130289119A1, “FORMULATION COMPRISING ARGININE, USE AND PREPARATION THEREOF” (OSPEDALE SAN RAFFAELE S.R.L., priority 2010, published 2013)

Description: In the present invention, the bio-availability and the vascular and metabolic effect of an oral administration of L-arginine (6.6 g) contained in the formulation of the invention (6 biscuits) compared either to the same food preparation (6 biscuits) prepared without the addition of L-arginine or to 6.6 g of powdered L-arginine were evaluated in healthy subjects.
Seven healthy subjects (2M/5F) participated in the study.
A complete medical history and a physical examination including height, weight, waist and hip circumferences and blood pressure measurements were taken for each subject. It was asked to all subjects to follow a 2000 kcal/die standard diet, according to LARN (Livelli di Assunzione Giornalieri Raccomandati di Nutrienti per la Popolazione Italiana) recommendations and to complete a 3 day food diary (two working days and one holiday day) before every test to obtain accurate information on short-term food intake. Food diaries were elaborated with a dedicated software to decode foods (Nutritionist Pro 2.5, Axial System, Stafford, Tex.), modified introducing the L-arginine contents, obtained from INRAN and USDA database, in more than 700 different foods items.
The portion of 6 biscuits further contained a total amount of 21.9 g of carbohydrates (17.9 g of starch and 4.0 g of sugars), 3.6 g of proteins, 7.5 g of fats and 4.3 g of fibers. A fixed amount of 250 ml of natural water was taken with the food preparation. […] A fixed amount of 250 ml of natural water was taken with the food preparation. • The third test consisted in the oral administration of 6.6 g of powdered L-arginine diluted in 250 ml of natural water. The Study Design is represented in FIG. 2. After an overnight fast, a 20-gauge plastic cannula (Abbocath T; Abbocath, Ireland LTD, Sling, Ireland) was inserted in a large antecubital vein for intermittent sampling. Samples for the evaluation of glucose, insulin, NOx and L-arginine levels were evaluated at 0, 30, 60, 90, 120, 180 and 240 minutes. c-GMP levels were evaluated at 0, 60, 120, 180 and 240 minutes.
Basal blood pressure was taken in supine position after 10 min of rest, and the mean of two measurements was used as the value, after that blood pressure was also taken at time 0, 120, 180 and 240 minutes. Forearm blood flow (FBF) was measured by strain-gauge venous occlusion plethysmography. Before any measurement was taken, the hand circulation was occluded using a wrist cuff inflated to 240 mmHg. Baseline blood flow was calculated as the mean of at least three values. Reactive hyperaemia (endothelium-dependent vasodilation) was measured after the release of a 5-min arterial occlusion, produced by inflating a standard sphygmomanometer cuff on the upper arm to 100 mmHg above systolic blood pressure (SBP). These measurement were performed at basal and every 60 min until the end of the study. Peripheral resistance was calculated as a ratio between mean blood pressure and the FBF.
Glucose levels were measured with spectrophotometric methods adapted to Cobas MIRA using commercial kits (ABX, Montpellier, France). Insulin and proinsulin levels were assayed with ELISA kits (Insulin ELISA, Mercodia, Uppsala, Sweden and Proinsulin ELISA, DRG, Marburg, Germany). NOx levels were evaluated through the measurement of metabolic end products, i.e., nitrite and nitrate, using enzymatic catalysis coupled with Griess reaction. c-GMP levels were measured with radioimmunoassay kits (NEN Life Science Products, Boston, Mass., USA). L-Arginine were extracted from plasma samples by cation-exchange Strata SCX 100-mg columns (Phenomenex) and assayed by high-performance liquid chromatography.

[1] = healthy subjects, oral 6.6 g L-arginine

**Q.** What does the source list for `N=C(N)NCCC[C@H](N)C(=O)O` [powdered L-Arginine, L-arginine]?
**A.** Incremental area under the curve for L-Arginine (ΔAUC L-Arginine) (both, human, in vivo, po): 15050 ± 1353 µmol/L; Percentage incremental increase of post-ischemic blood flow vs food preparation not containing L-Arginine (healthy subjects, forearm plethysmography): significantly (p<0.02) increased; cGMP plasma levels vs food preparation not containing L-Arginine [1]: significantly (p<0.03) higher; nitric oxide (NOx) plasma levels vs food preparation not containing L-Arginine [1]: significantly (p<0.03) higher; ΔAUC NOx vs food product not containing L-Arginine [1]: significantly (p<0.04) increased; ΔAUC cGMP vs food product not containing L-Arginine [1]: significantly (p<0.04) increased
